Data on 9 compounds can be found in patent US4156724A, “N-acylamino-alpha-arylacetamido cephalosporins and antibacterial compositions and methods containing them” (Sumitomo Chemical Company, Limited, priority 1974, dated 1979).

Values after ≈ are worked out from the molar mass of the structure shown.

What all share (type): cell-based
Experiment [1] concerns Enterobacter aerogeneus No. 75. Kind of experiment: Minimum Inhibitory Concentration, Enterobacter aerogeneus No. 75. The following applies: Enterobacter aerogeneus No. 75; read-out: Minimum Inhibitory Concentration. The procedure:
(§1) anti-microbial activity tests were carried out on the compounds obtained in the Examples.

The subject of experiment [2] is Staphylococcus aureus 209 P. Nature of the experiment: Minimum Inhibitory Concentration, Staphylococcus aureus 209 P. The following applies: Staphylococcus aureus 209 P; read-out: Minimum Inhibitory Concentration. As for the experimental part:
as §1

A further experiment deals with Proteus vulgaris HX 19. Kind of experiment: Minimum Inhibitory Concentration, Proteus vulgaris HX 19. As to conditions: HX19; Proteus vulgaris HX 19; read-out: Minimum Inhibitory Concentration. The procedure:
as §1

In a further experiment the test system is Escherichia coli NIHJ. Nature of the experiment: Minimum Inhibitory Concentration, Escherichia coli NIHJ. The following applies: Escherichia coli NIHJ; read-out: Minimum Inhibitory Concentration. As for the experimental part: as §1
For experiment [3], the system named is Staphylococcus aureus FS 289. Nature of the experiment: Minimum Inhibitory Concentration, Staphylococcus aureus FS 289. The following applies: FS289; Staphylococcus aureus FS 289, strain resistant to penicillin; read-out: Minimum Inhibitory Concentration. The procedure: as §1
*Staphylococcus aureus FS 289: strain resistant to penicillin

The test system of experiment [4] is Pseudomonas aeruginosa 104. Nature of the experiment: Minimum Inhibitory Concentration, Pseudomonas aeruginosa 104. As to conditions: Pseudomonas aeruginosa 104; read-out: Minimum Inhibitory Concentration. The procedure:
as §1

For experiment [5], the system named is Klebsiella pneumoniae 602. Nature of the experiment: Minimum Inhibitory Concentration, Klebsiella pneumoniae 602. As to conditions: Klebsiella pneumoniae, 602, Klebsiella pneumoniae 602; read-out: Minimum Inhibitory Concentration. The procedure: as §1
A further experiment has as its system Serratia No. 72. Kind of experiment: Minimum Inhibitory Concentration, Serratia No. 72. The procedure:
as §1

With `NC(=O)Nc1ccc([C@@H](NC(=O)c2cnccc2O)C(=O)N[C@@H]2C(=O)N3C(C(=O)O)=C(CSc4cnn[nH]4)CS[C@H]23)cc1` [Example 14], the MIC in experiment [1] was 12.5 µg/mL (≈ 20 µM); in experiment [2], 0.39 µg/mL (≈ 0.623 µM); in the experiment on Proteus vulgaris HX 19 it was 0.1 µg/mL (≈ 0.16 µM); in the experiment on Escherichia coli NIHJ, 6.25 µg/mL (≈ 9.99 µM); in experiment [3], 6.25 µg/mL (≈ 9.99 µM); in experiment [4], 6.25 µg/mL (≈ 9.99 µM). Moreover, the MIC in experiment [5] came out at 6.25 µg/mL (≈ 9.99 µM); with Serratia No. 72 it was 50 µg/mL (≈ 79.9 µM).
In the case of `Cc1nnc(SCC2=C(C(=O)O)N3C(=O)[C@@H](NC(=O)[C@H](NC(=O)c4ccnnc4O)c4cccc(NC(N)=O)c4)[C@H]3SC2)s1` [Example 15], the MIC in experiment [1] worked out at 6.25 µg/mL (≈ 9.5 µM); in experiment [2], 0.39 µg/mL (≈ 0.593 µM); in the experiment with Proteus vulgaris HX 19, 0.1 µg/mL (≈ 0.152 µM); in the experiment with Escherichia coli NIHJ, 12.5 µg/mL (≈ 19 µM); in experiment [3], 6.25 µg/mL (≈ 9.5 µM); in experiment [4] it was 6.25 µg/mL (≈ 9.5 µM). The results for the MIC (in experiment [5]; with Serratia No. 72) were 3.13 µg/mL (≈ 4.76 µM) and 50 µg/mL (≈ 76 µM), respectively.
In the case of `Cc1nnc(SCC2=C(C(=O)O)N3C(=O)[C@@H](NC(=O)[C@H](NC(=O)c4ccnnc4O)c4ccc(NC(N)=O)cc4)[C@H]3SC2)s1` [Example 16], the MIC stood at 6.25 µg/mL (≈ 9.5 µM) in experiment [1]; 0.39 µg/mL (≈ 0.593 µM) in experiment [2]; 0.2 µg/mL (≈ 0.304 µM) with Proteus vulgaris HX 19; 6.25 µg/mL (≈ 9.5 µM) in the experiment on Escherichia coli NIHJ; 6.25 µg/mL (≈ 9.5 µM) in experiment [3]; 6.25 µg/mL (≈ 9.5 µM) in experiment [4]. Further, the MIC was determined as 3.13 µg/mL (≈ 4.76 µM) in experiment [5] and 50 µg/mL (≈ 76 µM) with Serratia No. 72.
For the compound `Cn1nnnc1SCC1=C(C(=O)O)N2C(=O)[C@@H](NC(=O)[C@H](NC(=O)c3ccnnc3O)c3ccc(NC(N)=O)cc3)[C@H]2SC1` [Example 17], the MIC stood at 12.5 µg/mL (≈ 19.5 µM) in experiment [1]; 0.39 µg/mL (≈ 0.608 µM) in experiment [2]; 0.1 µg/mL (≈ 0.156 µM) in the experiment with Proteus vulgaris HX 19; 6.25 µg/mL (≈ 9.74 µM) in the experiment with Escherichia coli NIHJ; 6.25 µg/mL (≈ 9.74 µM) in experiment [3]; 6.25 µg/mL (≈ 9.74 µM) in experiment [4]. Also, the MIC in experiment [5] was 3.13 µg/mL (≈ 4.88 µM); with Serratia No. 72, 50 µg/mL (≈ 77.9 µM).
As to `NC(=O)Nc1ccc([C@@H](NC(=O)c2ccnnc2O)C(=O)N[C@@H]2C(=O)N3C(C(=O)O)=C(CSc4cnn[nH]4)CS[C@H]23)cc1` [Example 18], the MIC in experiment [1] was determined as 12.5 µg/mL (≈ 19.9 µM); in experiment [2], 0.39 µg/mL (≈ 0.622 µM); in the experiment on Proteus vulgaris HX 19, 0.2 µg/mL (≈ 0.319 µM); in the experiment on Escherichia coli NIHJ it was 6.25 µg/mL (≈ 9.97 µM); in experiment [3], 6.25 µg/mL (≈ 9.97 µM); in experiment [4] it was 6.25 µg/mL (≈ 9.97 µM). Moreover, the figures for the MIC (in experiment [5]; in the experiment with Serratia No. 72) were 6.25 µg/mL (≈ 9.97 µM) and 50 µg/mL (≈ 79.8 µM), respectively.
In the case of `NC(=O)Nc1ccc([C@@H](NC(=O)c2cncnc2O)C(=O)N[C@@H]2C(=O)N3C(C(=O)O)=C(CSc4nncs4)CS[C@H]23)cc1` [Example 19], the MIC in experiment [1] is 25 µg/mL (≈ 38.8 µM); in experiment [2], 0.39 µg/mL (≈ 0.606 µM); in the experiment with Proteus vulgaris HX 19 it was 0.2 µg/mL (≈ 0.311 µM); with Escherichia coli NIHJ, 12.5 µg/mL (≈ 19.4 µM); in experiment [3] it was 6.25 µg/mL (≈ 9.71 µM); in experiment [4], 12.5 µg/mL (≈ 19.4 µM). Moreover, the MIC in experiment [5] was 6.25 µg/mL (≈ 9.71 µM); against Serratia No. 72, 50 µg/mL (≈ 77.7 µM).
In the case of `Cc1nnc(SCC2=C(C(=O)O)N3C(=O)[C@@H](NC(=O)[C@H](NC(=O)c4cnc5cccnc5c4O)c4ccc(NC(N)=O)cc4)[C@H]3SC2)s1` [Example 20], the MIC in experiment [1] was determined as 3.13 µg/mL (≈ 4.42 µM); in experiment [2], 0.78 µg/mL (≈ 1.1 µM); in the experiment on Proteus vulgaris HX 19, 0.1 µg/mL (≈ 0.141 µM); in the experiment on Escherichia coli NIHJ, 3.13 µg/mL (≈ 4.42 µM); in experiment [3] it was 3.13 µg/mL (≈ 4.42 µM); in experiment [4], 3.13 µg/mL (≈ 4.42 µM). The MIC in experiment [5] came to 1.56 µg/mL (≈ 2.2 µM); with Serratia No. 72, 12.5 µg/mL (≈ 17.7 µM).
With `NC(=O)Nc1ccc([C@@H](NC(=O)c2cnc3cccnc3c2O)C(=O)N[C@@H]2C(=O)N3C(C(=O)O)=C(CSc4nncs4)CS[C@H]23)cc1` [Example 21], the MIC in experiment [1] turned out to be 3.13 µg/mL (≈ 4.51 µM); in experiment [2], 0.78 µg/mL (≈ 1.12 µM); with Proteus vulgaris HX 19, 0.2 µg/mL (≈ 0.288 µM); in the experiment with Escherichia coli NIHJ, 3.13 µg/mL (≈ 4.51 µM); in experiment [3], 3.13 µg/mL (≈ 4.51 µM); in experiment [4], 3.13 µg/mL (≈ 4.51 µM). Further, the values for the MIC (in experiment [5]; against Serratia No. 72) were 1.56 µg/mL (≈ 2.25 µM) and 12.5 µg/mL (≈ 18 µM), respectively.
Turning to `Cn1nnnc1SCC1=C(C(=O)O)N2C(=O)[C@@H](NC(=O)[C@H](NC(=O)c3cnc4cccnc4c3O)c3ccc(NC(N)=O)cc3)[C@H]2SC1` [Example 22], the MIC was determined as 3.13 µg/mL (≈ 4.53 µM) in experiment [1]; 0.78 µg/mL (≈ 1.13 µM) in experiment [2]; 0.1 µg/mL (≈ 0.145 µM) in the experiment on Proteus vulgaris HX 19; 1.56 µg/mL (≈ 2.26 µM) in the experiment on Escherichia coli NIHJ; 6.25 µg/mL (≈ 9.04 µM) in experiment [3]; 3.13 µg/mL (≈ 4.53 µM) in experiment [4]. The MIC came to 1.56 µg/mL (≈ 2.26 µM) in experiment [5] and 12.5 µg/mL (≈ 18.1 µM) against Serratia No. 72.
